Source: patent US20240376085A1 (Janssen Pharmaceutica NV, priority 2021, published 2024)

Experiments:
IL-17A : IL-17RA binding = biological target: T1, IL-17A : IL-17RA binding (Homo sapiens, UniProt Q16552, K93Q); test: IL-17A(FLAG-tagged):IL-17RA(His-tagged) binding disruption Eu-HTRF assay, Protocol 1; settings: FLAG-IL-17A 2.5 nM at 2x final concentration; average if tested more than once
T1 construct: Name: IL-17A-Flag
Procedure, shortened: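 IC50 came from a one-site competition fit of the acceptor/donor (665/620 nm) HTRF ratio. His-tagged IL-17RA, Eu-anti-FLAG and D2-anti-His were added after a 1 h rt compound preincubation with FLAG-tagged IL-17A dimer in PBS/0.01% Triton X-100, followed by 2 h at rt before reading.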

[1] = tested on: IL-17A-induced G-CSF production in human normal keratinocyte (NHK); test: NHK assay: IL-17A-induced G-CSF production in normal human keratinocytes; format: cell-based; settings: 24 h, IL-17A 5 ng/mL, average if tested more than once
Procedure, shortened: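 Stimulus rhIL-17A 5 ng/mL final, premixed 1 h rt with compound; adult NHK, 5% FBS, 0.2% DMSO. Viability by CellTiter-Glo vs DMSO.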

T1 sequence (Q16552 with tags, fused parts or gaps K93Q): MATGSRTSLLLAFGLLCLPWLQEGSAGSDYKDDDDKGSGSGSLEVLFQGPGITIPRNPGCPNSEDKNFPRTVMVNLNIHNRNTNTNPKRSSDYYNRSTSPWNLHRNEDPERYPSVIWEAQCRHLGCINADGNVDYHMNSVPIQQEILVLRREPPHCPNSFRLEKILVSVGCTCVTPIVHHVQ

SMILES: CC(C)c1ocnc1C(=O)N[C@H](c1nc2cc([C@@H](C)NC(=O)CCC(F)(F)F)ccc2[nH]1)C1CCC(F)(F)CC1 [Example 207, N—((S)-(4,4-Difluorocyclohexyl)(5-((R)-1-(4,4,4-trifluorobutanamido)ethyl)-1H-benzo[d]imidazol-2-yl)methyl)-5-isopropyloxazole-4-carboxamide]
- IC50 (IL-17A : IL-17RA binding): 50 to 100 nM
- IC50 ([1]; Homo sapiens, Keratinocyte): > 100 nM

SMILES: C[C@@H](NC(=O)CCC(F)(F)F)c1ccc2[nH]c([C@@H](NC(=O)c3cnn(CC4CCC4(F)F)n3)C3CCC(F)(F)CC3)nc2c1 (stereo partly drawn) [Example 87, 2-((2,2-Difluorocyclobutyl)methyl)-N—((S)-(4,4-difluorocyclohexyl)(5-((R)-1-(4,4,4-trifluorobutanamido)ethyl)-1H-benzo[d]imidazol-2-yl)methyl)-2H-1,2,3-triazole-4-carboxamide]
- IC50 (IL-17A : IL-17RA binding): > 100 nM
- IC50 ([1]; Homo sapiens, Keratinocyte): > 100 nM

SMILES: Cc1nonc1C(=O)N[C@H](c1nc2ccc([C@H](NC(=O)CC3CC(F)(F)C3)C3CC3)cc2[nH]1)[C@@H]1CCCC(F)(F)C1 [Example 246, N—((S)-(6-((R)-Cyclopropyl(2-(3,3-difluorocyclobutyl)acetamido)methyl)-1H-benzo[d]imidazol-2-yl)((R)-3,3-difluorocyclohexyl)methyl)-4-methyl-1,2,5-oxadiazole-3-carboxamide]
- IC50 (IL-17A : IL-17RA binding): < 50 nM
- IC50 ([1]; Homo sapiens, Keratinocyte): < 50 nM

SMILES: Cc1nonc1C(=O)N[C@@H](CC(C)(C)C(F)(F)F)c1nc2ccc([C@H](NC(=O)CC(C)C(F)(F)F)C3CC3)cc2[nH]1 (single isomer, unassigned) [Example 179, N—((S)-1-(6-((R)-Cyclopropyl((R*)-4,4,4-trifluoro-3-methylbutanamido)methyl)-1H-benzo[d]imidazol-2-yl)-4,4,4-trifluoro-3,3-dimethylbutyl)-4-methyl-1,2,5-oxadiazole-3-carboxamide]
- IC50 (IL-17A : IL-17RA binding): < 50 nM
- IC50 ([1]; Homo sapiens, Keratinocyte): > 100 nM

SMILES: Cc1nonc1C(=O)N[C@H](c1nc2ccc([C@H](NC(=O)CC3CC(F)(F)C3)C3CC3)cc2[nH]1)[C@@H]1CCCCO1 (relative stereo) [Example 248, N—((R*)-(6-((R)-Cyclopropyl(2-(3,3-difluorocyclobutyl)acetamido)methyl)-1H-benzo[d]imidazol-2-yl)((S*)-tetrahydro-2H-pyran-2-yl)methyl)-4-methyl-1,2,5-oxadiazole-3-carboxamide]
- IC50 (IL-17A : IL-17RA binding): 50 to 100 nM
- IC50 ([1]; Homo sapiens, Keratinocyte): > 100 nM

SMILES: C[C@@H](NC(=O)CCC(F)(F)F)c1ccc2[nH]c([C@@H](NC(=O)c3cc(O)n(CCC(F)(F)F)n3)C3CCC(F)(F)CC3)nc2c1 [Example 93, N—((S)-(4,4-Difluorocyclohexyl)(5-((R)-1-(4,4,4-trifluorobutanamido)ethyl)-1H-benzo[d]imidazol-2-yl)methyl)-5-hydroxy-1-(3,3,3-trifluoropropyl)-1H-pyrazole-3-carboxamide]
- IC50 (IL-17A : IL-17RA binding): > 100 nM
- IC50 ([1]; Homo sapiens, Keratinocyte): > 100 nM

SMILES: C[C@@H](NC(=O)CCC(F)(F)F)c1ccc2[nH]c([C@@H](NC(=O)c3cn(CCCC(F)(F)F)nn3)C3CCC(F)(F)CC3)nc2c1 [Example 21, N—[(S)-(4,4-Difluorocyclohexyl)-[6-[(1R)-1-(4,4,4-trifluorobutanoylamino)ethyl]-1H-benzimidazol-2-yl]methyl]-1-(4,4,4-trifluorobutyl)triazole-4-carboxamide]
- IC50 (IL-17A : IL-17RA binding): > 100 nM
- IC50 ([1]; Homo sapiens, Keratinocyte): > 100 nM

SMILES: C[C@@H](NC(=O)CCC(F)(F)F)c1ccc2[nH]c([C@@H](NC(=O)c3cnn(CCC(F)(F)F)n3)C3CCC(F)(F)CC3)nc2c1 [Example 3, N—[(S)-(4,4-Difluorocyclohexyl)-[6-[(1R)-1-(4,4,4-trifluorobutanoylamino)ethyl]-1H-benzimidazol-2-yl]methyl]-2-(3,3,3-trifluoropropyl)triazole-4-carboxamide]
- IC50 (IL-17A : IL-17RA binding): > 100 nM
- IC50 ([1]; Homo sapiens, Keratinocyte): > 100 nM

SMILES: C[C@@H](NC(=O)CCC(F)(F)F)c1ccc2[nH]c([C@@H](NC(=O)c3ccnn3CC(F)(F)F)C3CCC(F)(F)CC3)nc2c1 [Example 128, N—((S)-(4,4-Difluorocyclohexyl)(5-((R)-1-(4,4,4-trifluorobutanamido)ethyl)-1H-benzo[d]imidazol-2-yl)methyl)-1-(2,2,2-trifluoroethyl)-1H-pyrazole-5-carboxamide]
- IC50 (IL-17A : IL-17RA binding): > 100 nM
- IC50 ([1]; Homo sapiens, Keratinocyte): > 100 nM

SMILES: Cc1nonc1C(=O)N[C@H](c1nc2cc([C@H](NC(=O)CC(C)C(F)(F)F)C3CC3)ccc2[nH]1)[C@@H]1CCCC(F)(F)C1 (single isomer, unassigned) [Example 259, N—((S)-(5-((R)-Cyclopropyl((S*)-4,4,4-trifluoro-3-methylbutanamido)methyl)-1H-benzo[d]imidazol-2-yl)((R)-3,3-difluorocyclohexyl)methyl)-4-methyl-1,2,5-oxadiazole-3-carboxamide]
- IC50 (IL-17A : IL-17RA binding): 50 to 100 nM
- IC50 [1]: 50 to 100 nM

SMILES: C[C@@H](NC(=O)CCC(F)(F)F)c1ccc2nc([C@@H](NC(=O)c3cnn(C)c3C(F)(F)F)C3CCC(F)(F)CC3)[nH]c2c1 [Example 58, N—((S)-(4,4-Difluorocyclohexyl)(6-((R)-1-(4,4,4-trifluorobutanamido)ethyl)-1H-benzo[d]imidazol-2-yl)methyl)-1-methyl-5-(trifluoromethyl)-1H-pyrazole-4-carboxamide]
- IC50 (IL-17A : IL-17RA binding): > 100 nM
- IC50 ([1]; Homo sapiens, Keratinocyte): > 100 nM

SMILES: C[C@@H](NC(=O)CCC(F)(F)F)c1ccc2[nH]c([C@@H](NC(=O)[C@@H]3CC[C@@H]3CF)C3CCC(F)(F)CC3)nc2c1 (single isomer, unassigned) [Example 113]
- IC50 (IL-17A : IL-17RA binding): > 100 nM
- IC50 ([1]; Homo sapiens, Keratinocyte): > 100 nM

SMILES: CC(C)n1nccc1C(=O)N[C@@H](COC(C)(C)C(F)(F)F)c1nc2cc([C@H](NC(=O)CC3CC(F)(F)C3)C3CC3)ccc2[nH]1 [Example 160, N—((R)-1-(5-((R)-Cyclopropyl(2-(3,3-difluorocyclobutyl)acetamido)methyl)-1H-benzo[d]imidazol-2-yl)-2-((1,1,1-trifluoro-2-methylpropan-2-yl)oxy)ethyl)-1-isopropyl-1H-pyrazole-5-carboxamide]
- IC50 (IL-17A : IL-17RA binding): < 50 nM
- IC50 ([1]; Homo sapiens, Keratinocyte): < 50 nM

SMILES: CC(C)n1nccc1C(=O)N[C@H](c1nc2ccc([C@@H](C)NC(=O)CC(C)C(F)(F)F)cc2[nH]1)C1CCC(F)(F)CC1 (single isomer, unassigned) [Example 135, N—((S)-(4,4-Difluorocyclohexyl)(6-((R)-1-((R*)-4,4,4-trifluoro-3-methylbutanamido)ethyl)-1H-benzo[d]imidazol-2-yl)methyl)-1-isopropyl-1H-pyrazole-5-carboxamide]
- IC50 (IL-17A : IL-17RA binding): > 100 nM
- IC50 ([1]; Homo sapiens, Keratinocyte): < 50 nM

SMILES: C[C@@H](NC(=O)CCC(F)(F)F)c1ccc2nc([C@@H](NC(=O)c3cn(CC(F)(F)F)nc3C3CC3)C3CCC(F)(F)CC3)[nH]c2c1 [Example 75, 3-Cyclopropyl-N—((S)-(4,4-difluorocyclohexyl)(6-((R)-1-(4,4,4-trifluorobutanamido)ethyl)-1H-benzo[d]imidazol-2-yl)methyl)-1-(2,2,2-trifluoroethyl)-1H-pyrazole-4-carboxamide]
- IC50 (IL-17A : IL-17RA binding): > 100 nM
- IC50 ([1]; Homo sapiens, Keratinocyte): > 100 nM

SMILES: C[C@@H](NC(=O)CCC(F)(F)F)c1ccc2[nH]c([C@@H](NC(=O)c3ncnn3C)C3CCC(F)(F)CC3)nc2c1 [Example 31, N—[(S)-(4,4-Difluorocyclohexyl)-[6-[(1R)-1-(4,4,4-trifluorobutanoylamino)ethyl]-1H-benzimidazol-2-yl]methyl]-2-methyl-1,2,4-triazole-3-carboxamide]
- IC50 (IL-17A : IL-17RA binding): > 100 nM
- IC50 ([1]; Homo sapiens, Keratinocyte): > 100 nM

SMILES: C[C@@H](NC(=O)CCC(F)(F)F)c1ccc2[nH]c([C@@H](NC(=O)c3ncnn3CC3CC3)C3CCC(F)(F)CC3)nc2c1 [Example 30, 2-(Cyclopropylmethyl)-N—[(S)-(4,4-difluorocyclohexyl)-[6-[(1R)-1-(4,4,4-trifluorobutanoylamino)ethyl]-1H-benzimidazol-2-yl]methyl]-1,2,4-triazole-3-carboxamide]
- IC50 (IL-17A : IL-17RA binding): 50 to 100 nM
- IC50 ([1]; Homo sapiens, Keratinocyte): > 100 nM

SMILES: Cc1nonc1C(=O)N[C@H](c1nc2cc([C@H](NC(=O)CCC(F)(F)F)C3CC3)ccc2[nH]1)[C@@H]1CCCC(F)(F)C1 [Example 263, N—((S)-(5-((R)-Cyclopropyl(4,4,4-trifluorobutanamido)methyl)-1H-benzo[d]imidazol-2-yl)((R)-3,3-difluorocyclohexyl)methyl)-4-methyl-1,2,5-oxadiazole-3-carboxamide]
- IC50 (IL-17A : IL-17RA binding): < 50 nM
- IC50 ([1]; Homo sapiens, Keratinocyte): 50 to 100 nM

SMILES: C[C@@H](NC(=O)CCC(F)(F)F)c1ccc2[nH]c([C@@H](NC(=O)c3ncn(CCC(F)(F)F)n3)C3CCC(F)(F)CC3)nc2c1 [Example 228, N—((S)-(4,4-Difluorocyclohexyl)(5-((R)-1-(4,4,4-trifluorobutanamido)ethyl)-1H-benzo[d]imidazol-2-yl)methyl)-1-(3,3,3-trifluoropropyl)-1H-1,2,4-triazole-3-carboxamide]
- IC50 (IL-17A : IL-17RA binding): > 100 nM
- IC50 ([1]; Homo sapiens, Keratinocyte): > 100 nM

SMILES: C[C@@H](NC(=O)CCC(F)(F)F)c1ccc2[nH]c([C@@H](NC(=O)c3conc3C3CC3)C3CCC(F)(F)CC3)nc2c1 [Example 209, 3-Cyclopropyl-N—((S)-(4,4-difluorocyclohexyl)(5-((R)-1-(4,4,4-trifluorobutanamido)ethyl)-1H-benzo[d]imidazol-2-yl)methyl)isoxazole-4-carboxamide]
- IC50 (IL-17A : IL-17RA binding): 50 to 100 nM
- IC50 ([1]; Homo sapiens, Keratinocyte): < 50 nM

SMILES: C[C@@H](NC(=O)CCC(F)(F)F)c1ccc2[nH]c([C@@H](NC(=O)c3cnnn3CCC(F)(F)F)C3CCC(F)(F)CC3)nc2c1 [Example 4, N—[(S)-(4,4-Difluorocyclohexyl)-[6-[(1R)-1-(4,4,4-trifluorobutanoylamino)ethyl]-1H-benzimidazol-2-yl]methyl]-3-(3,3,3-trifluoropropyl)triazole-4-carboxamide]
- IC50 (IL-17A : IL-17RA binding): > 100 nM
- IC50 ([1]; Homo sapiens, Keratinocyte): 50 to 100 nM
